ChEMBL document CHEMBL1201862, “PubChem BioAssay data set” (2004)
Calls of active or inactive are those of the source. No stated cut-off is given here; in the data, actives have a measured IC50 and inactives only a lower limit.

Molecular target: Envelope glycoprotein gp160 (Human immunodeficiency virus 1, UniProt Q6QLK5)
Test: inhibitors of HIV fusion peptide binding, primary screen, biochemical, uHTS, fluorescence dequenching (AID 1986)

Sequence of Envelope glycoprotein gp160 (Q6QLK5 whole entry, the tested form may be a part): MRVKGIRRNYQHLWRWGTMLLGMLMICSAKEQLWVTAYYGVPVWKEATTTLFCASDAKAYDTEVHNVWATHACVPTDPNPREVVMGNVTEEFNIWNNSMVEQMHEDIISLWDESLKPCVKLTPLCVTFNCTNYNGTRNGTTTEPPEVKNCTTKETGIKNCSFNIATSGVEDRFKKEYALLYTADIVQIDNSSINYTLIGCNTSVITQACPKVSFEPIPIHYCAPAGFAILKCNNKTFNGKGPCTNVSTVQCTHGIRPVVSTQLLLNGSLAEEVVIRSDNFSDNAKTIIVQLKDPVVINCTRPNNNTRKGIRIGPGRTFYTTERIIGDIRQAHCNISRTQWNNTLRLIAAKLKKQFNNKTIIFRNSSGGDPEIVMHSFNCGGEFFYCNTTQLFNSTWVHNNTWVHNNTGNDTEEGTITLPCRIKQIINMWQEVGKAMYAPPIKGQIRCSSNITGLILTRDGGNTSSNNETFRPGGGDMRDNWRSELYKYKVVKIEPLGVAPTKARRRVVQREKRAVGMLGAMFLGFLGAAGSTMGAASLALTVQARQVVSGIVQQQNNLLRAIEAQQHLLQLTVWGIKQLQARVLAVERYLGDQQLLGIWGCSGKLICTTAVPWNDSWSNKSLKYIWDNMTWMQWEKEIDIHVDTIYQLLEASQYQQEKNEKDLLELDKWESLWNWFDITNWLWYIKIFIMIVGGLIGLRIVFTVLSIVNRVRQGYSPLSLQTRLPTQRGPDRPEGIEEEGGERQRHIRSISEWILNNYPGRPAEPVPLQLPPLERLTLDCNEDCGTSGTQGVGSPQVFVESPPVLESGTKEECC

Question: With O=C(O)CN1C(=O)/C(=C\c2ccccc2OCc2ccc(Cl)cc2Cl)SC1=S as the compound, how does the IC50 read?
Answer: 16.1 µM (active)
